Source: PMC12684298, “The Parkinson's Disease Drug Tolcapone and Analogues are Potent Glycomimetic Lectin Inhibitors of Pseudomonas aeruginosa LecA” (Angewandte Chemie (International Ed. in English), 2025)
Read-outs that look alike come from different tables or passages of the source.

How the values were obtained:
[1] = target: T1, LecA (Pseudomonas aeruginosa, UniProt Q05097); conditions: previous hits; cited from earlier work
T1 construct: made in house; host or cells: E. coli BL21 (DE3), plasmid pET25pa11

[2] = target: T1, LecA; assay: biochemical; format: binding; conditions: IC50, LecA inhibition, competitive binding assay (FP), tested up to 1.5 mM, n ≥ 2
Procedure: Therefore, we focused our attention on commercially available nitro‐catechols. Prominent derivatives are inhibitors of the enzyme catechol‐O‐methyltransferase (COMT) and approved drugs for the treatment of Parkinson's disease. Four commercial COMT inhibitors were thus evaluated in a previously reported competitive binding assay based on fluorescence polarisation (FP, Table 1, Figure 1).^[ [32] ^]
The competitive binding assay was performed in analogy to Joachim et al.^[2] 10 µL of a solution containing LecA (40 µM) and sulfo-Cy5-Gal (20 nM, synthesis described in Kuhaudomlarp, Siebs et al.^[5]) in TBS/Ca buffer (20 mM Tris, 147 mM NaCl, 2.6 mM KCl at pH 7.4 supplemented with 1 mM CaCl2) were distributed in into wells of a black 384-well microtiter plate (Greiner Bio-One, Germany, cat no 781900). Then, 10 µL of serial dilutions of compounds (3 mM to 1.5 µM, dilution factor 0.5) in TBS/Ca with 40% DMSO were added in technical triplicates. Final concentrations after mixing were the following: 1.5 mM – 0.73 µM compound, 20 µM LecA, 10 nM sulfo-Cy5-Gal and 20% DMSO. The plate was sealed (EASYseal, Greiner Bio-One, cat no 676001), briefly centrifuged and incubated at room temperature in the dark under shaking conditions. Fluorescence intensity was measured after 1 h and 4 h using a PheraStar FS plate reader (BMG Labtech GmbH, Germany) with spectral filters for excitation at 590 nm and emission at 675 nm and polarization was calculated after blank values of 20 µM LecA in TBS/Ca buffer with 20% DMSO were subtracted from the test compounds. The data were analysed using the four-parameter variable slope model of the MARS Data Analysis software. The top and bottom plateau were assigned based on the control compound methyl α-d-galactoside and the data was reanalysed with these fixed values. If not mentioned otherwise, the experiment was repeated at least three times for each compound and the average and standard deviation are given. In case Triton X-100 was used it was added to the TBS/Ca buffer before the assay.

[3] = target: T1, LecA; assay: Library screening using the FP competitive binding assay (three concentrations); conditions: read-out: Activity [%] (% inhibition relative to 500 µM pNPGal)
Excerpt: Next, we screened a library of catechols from F. Hoffmann‐La Roche, the developer of Tolcapone, in the competitive binding assay to establish a structure–activity relationship. To this end, two sets of compounds with a molecular cut‐off of 500 Da were chosen: a first set of 342 compounds contained derivatives of Tolcapone, while a second set of 3222 compounds comprised catechols covering a larger chemical space. […] Tests were run in a 384‐well‐plate format at three concentrations (first set at 125, 32, and 4 µM, second set at 100, 25, and 3 µM) in presence of 10% DMSO and 250 µM 2‐mercaptoethanol to prevent interference by a potential unspecific reactivity of electron‐rich catechols as established earlier.^[ [30] ^]
The screening followed the same assay by Joachim et al.^[2] as described above. Compounds in DMSO (1 µL with the appropriate concentration) were plated using a robot into black 384-well microtiter plates (Greiner Bio-One, Germany, cat no 781900) by the Roche compound handling facility at four replicates per concentration and compound. A mixture of LecA, sulfo-Cy5-Gal and 2-mercaptoethanol in TBS/Ca (20 mM Tris, 147 mM NaCl, 2.6 mM KCl at pH 7.4 supplemented with 1 mM CaCl2) with DMSO was added at HIPS. Final concentrations in both screening rounds were the following: 5 µM LecA, 250 µM 2-mercaptoethanol, 10 nM sulfo-Cy5-Gal and 10% DMSO. Final concentrations of the 342 compounds of the first screening round were 125 µM, 32 µM and 4 µM. The 3222 compounds of the second screening round were tested at final concentrations of 100 µM, 25 µM and 3 µM. The plate was sealed (EASYseal, Greiner Bio-One, cat no 676001), briefly centrifuged and incubated at room temperature in the dark under shaking conditions. Fluorescence intensities were measured after 1 h and 24 h using a PheraStar FS plate reader (BMG Labtech GmbH, Germany) with spectral filters for excitation at 590 nm and emission at 675 nm and polarization was calculated after blank values of 5 µM LecA in TBS/Ca buffer with 250 µM 2-mercaptoethanol and 10% DMSO were subtracted from the test compounds. The data were analysed using the MARS Data Analysis software. […] All stated values are the average including the standard deviation based on three replicates for 100 µM and four replicates in the case of compounds at 125 µM.

[4] = target: T1, LecA; assay: Surface plasmon resonance (SPR) direct binding, steady-state affinity
Procedure: To confirm the affinity of Tolcapone toward LecA in an orthogonal assay, the compound was then evaluated in a direct binding experiment by surface plasmon resonance (SPR).
Using a BIACORE X100, LecA was immobilised on a CM7 chip by standard amine coupling at 25 °C as described previously.^[5] From a 200 mM solution of Tolcapone in 100% DMSO, a 10 mM solution in PBS (supplemented with 0.05% Tween20 and 100 µM CaCl2) was prepared. The final dilutions (0 – 2000 µM) were then prepared by dilution with running buffer (PBS supplemented with 0.05% Tween 20, 100 µM CaCl2 and 5% DMSO). Increasing concentrations of Tolcapone were injected onto the immobilised LecA in steady-state affinity studies (30 s association, 60 s dissociation, flow rate 30 µL/min). Data was corrected by subtraction of the reference channel (no immobilised LecA) and analysed with the BIACORE X100 evaluation software (version 2.0). The average binding affinity and standard deviation of three independent experiments is given.

[5] = one of the hydroxy groups; no reference given; cited from earlier work

T1 sequence (Q05097 whole entry): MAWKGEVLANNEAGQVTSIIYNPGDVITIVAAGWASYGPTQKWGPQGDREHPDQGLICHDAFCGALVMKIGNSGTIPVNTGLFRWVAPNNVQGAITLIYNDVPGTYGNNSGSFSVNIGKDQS

**Q.** With `O=C(c1ccccc1)c1ccc(O)c(O)c1` [3,4‐dihydroxybenzophenone] as the compound, how does the Kd [1] read?
**A.** 3460 ± 410 µM

**Q.** For `Cc1ccc(C(=O)c2cc(O)c(O)c([N+](=O)[O-])c2)cc1` [compound 4, Tolcapone], which IC50 [2] is on record?
**A.** 257 ± 40 µM

**Q.** What about the inhibition at 100 µM [3] of the same compound?
**A.** 43.9 ± 2.1%

**Q.** And the Kd [4]?
**A.** 181 ± 6 µM

**Q.** And the pKa [5]?
**A.** ~4.6
